Results taken from paper PMC7822030, “Hybrid Inhibitors of DNA Gyrase A and B: Design, Synthesis and Evaluation” (Pharmaceutics, 2020).
Like-named read-outs stand apart in the source and are kept apart here.

Key:
[1] = biological target: T1, E. coli topoisomerase IV (Escherichia coli, UniProt P0AFI2+P20083); assay: E. coli topoisomerase IV relaxation assay; type: biochemical; conditions: for Inhibition of topoisomerase IV (in words): relaxation assay
T1 construct: purchased Inspiralis, Norwich, UK
Procedure: (§1) The assay for determination of the IC50 values was performed according to previously reported procedures.
(§2) Briefly, inhibitory activities were determined using supercoiling (for DNA gyrase) and relaxation (for topoisomerase IV) assay kits (Inspiralis, Norwich, UK) on streptavidin-coated 96-well microtiter plates from Thermo Scientific Pierce (Thermo Fisher Scientific, Waltham, MA, USA). First, the plates were rehydrated with Wash Buffer and the biotinylated oligonucleotide TFO1 was then immobilized. After washing off the unbound oligonucleotide with Wash Buffer, the enzyme assay was performed. Into each well was added 24 µL of mixture containing 6 µL of Assay Buffer (containing ATP), 0.75 µL of relaxed (for E. coli DNA gyrase supercoiling assay) or supercoiled (for E. coli topoisomerase IV relaxation assay) pNO1 plasmid and 17.25 µL of water. Additionally, 3 µL of a solution of the inhibitor in 10% DMSO containing 0.008% Tween 20 and 3 µL of enzyme (1.5 U) in Dilution Buffer were also added to the wells. […] The TF buffer was added to terminate the enzymatic reaction and after additional incubation for 30 min at room temperature, which allowed for triplex formation (biotin–oligonucleotide–plasmid), the unbound plasmid was washed off using TF buffer. Promega Diamond dye in T10 buffer was then added. […] Here, the compounds were diluted using 2-fold serial dilution steps of the given compound. GraphPad Prism 6.0 software was used to calculate the IC50 values, which were determined in at least two independent measurements, and their means are given as the final result. […] Dose-response curves can be found in Supplementary Materials.

[2] = test system: E. coli BW25113 WT; assay: MIC, E. coli BW25113 wild-type; type: cell-based; conditions: Escherichia coli, BW25113, read-out: Minimum Inhibitory Concentration E. coli BW# WT
Excerpt: (§3) E. coli MG1655 originated from the laboratory collection of Dr. Csaba Pál. […] E. coli K-12 BW25113 single-gene knockout mutant lines ΔdapF, ΔmrcB, ΔsurA, ΔacrB and ΔtolC originated form the Keio collection copy owned by the laboratory of Dr. Csaba Pál.
(§4) Cation-adjusted Mueller Hinton II broth (MHBII) was used for growth of the bacteria under standard laboratory conditions, for antimicrobial susceptibility tests, and for selection of resistant variants. To prepare the MHBII broth, 22 g MHBII powder (containing 3 g beef extract, 17.5 g acid hydrolysate of casein, 1.5 g starch; Becton, Dickinson and Co., Franklin Lakes, NJ, USA) was dissolved in 1 L water. MHBII agar was prepared by addition of 14 g agar (Bacto; Molar Chemicals, Halásztelek, Hungary) to 1 L broth.
(§5) Minimum inhibitory concentrations (MICs) were determined using a standard serial broth microdilution technique, according to the Clinical and Laboratory Standards Institute guidelines. […] For Enterococcus sp., the cells were plated in BHI agar plates, and BHI broth was used to determine the MICs. […] Following the dilutions, each well was seeded with 5 × 10^4 bacterial cells. Each measurement was performed in three parallel replicates, and to avoid possible edge effects in the microwell plates, the outside rows (A, H) were filled with sterile medium. Following the inoculations, the plates were covered with the lids and wrapped in polyethylene plastic bags, to minimize evaporation but to allow O2 transfer. […] After incubation, the OD600 of each well was measured using a microplate reader (Synergy 2; Biotek, Winooski, VT, USA).

[3] = test system: K. pneumoniae ATCC 10031; assay: MIC broth microdilution, K. pneumoniae; type: cell-based; conditions: Klebsiella pneumoniae, ATCC10031, read-out: MIC K. pneumoniae ATCC #
Excerpt: as §3, §4, §5

[4] = test system: P. aeruginosa ATCC 27863; assay: MIC broth microdilution, P. aeruginosa; type: cell-based; conditions: Pseudomonas aeruginosa
Excerpt: as §3, §4, §5

[5] = test system: E. coli MG1655 GyrA S83L, D87N ParC S80I, E84G; assay: microbe, parasite or virus in culture; type: cell-based, Escherichia coli; conditions: for MIC: Escherichia coli, MG1655, read-out: Minimum Inhibitory Concentration E. coli MG# GyrA S83L, D87N ParC S80I, E84G; for Minimum Inhibitory Concentration E. coli MG1655 GyrA S83L, D87N ParC S80I, E84G: in the presence of 50 µg/mL PAβN
Excerpt: as §3, §4, §5
(§6) These mutated amino acids are the most common sites for target-based resistance in E. coli.

[6] = test system: E. coli MG1655 GyrB R136C; assay: microbe, parasite or virus in culture; type: cell-based, Escherichia coli; conditions: for MIC: Escherichia coli, MG1655, read-out: Minimum Inhibitory Concentration E. coli MG# GyrB R#C; for Minimum Inhibitory Concentration E. coli MG1655 GyrB R136C: in the presence of 50 µg/mL PAβN
Excerpt: as §3, §4, §5, §6

[7] = test system: E. coli ATCC 25922; assay: MIC broth microdilution, E. coli ATCC 25922; type: cell-based; conditions: Escherichia coli, ATCC25922, read-out: MIC E. coli ATCC #
Excerpt: as §3, §4, §5

[8] = biological target: T2, E. coli DNA gyrase (Escherichia coli, UniProt P0AES4+P0AES6); assay: E. coli DNA gyrase supercoiling assay; type: biochemical
T2 construct: purchased Inspiralis, Norwich, UK
Procedure: as §1, §2

[9] = test system: E. coli MG1655 WT; assay: MIC, E. coli MG1655 wild-type with PAβN; type: cell-based, Escherichia coli; conditions: for MIC: Escherichia coli, MG1655, read-out: Minimum Inhibitory Concentration E. coli MG# WT, 50 µg/mL PAβN, molar conversion in parentheses; for Minimum Inhibitory Concentration E. coli MG1655 WT: in the presence of 50 µg/mL PAβN
Excerpt: as §3, §4
as §5, with “USA). […]” for “USA).”

[10] = test system: E. cloacae spp. cloacae ATCC 13047; assay: MIC broth microdilution, E. cloacae; type: cell-based, Enterobacter cloacae; conditions: Enterobacter cloacae, ATCC13047, read-out: MIC E. cloacae spp. cloacae ATCC #
[11] = test system: E. coli BW25113 ΔtolC; type: cell-based, Escherichia coli; conditions: for MIC change, ΔtolC mutant versus wild-type E. coli BW25113: improvement of MIC in impaired efflux pump mutant
Excerpt: as §3, §4, §5

[12] = test system: E. coli BW25113 ΔdapF; type: cell-based, Escherichia coli
Excerpt: as §3, §4, §5

[13] = test system: E. coli BW25113 ΔmrcB; type: cell-based, Escherichia coli
Excerpt: as §3, §4, §5

[14] = test system: E. coli BW25113 ΔacrB; type: cell-based, Escherichia coli
Excerpt: as §3, §4, §5

[15] = test system: E. coli BW25113 ΔsurA; type: cell-based, Escherichia coli
Excerpt: as §3, §4, §5

[16] = test system: A. baumannii ATCC 17978; assay: MIC broth microdilution, A. baumannii; type: cell-based; conditions: Acinetobacter baumannii, ATCC17978, read-out: MIC A. baumannii ATCC #
Excerpt: as §3, §4, §5

[17] = molar conversion in parentheses
[18] = ATCC27863, 18 h, read-out: MIC P. aeruginosa ATCC #
[19] = ATCC27863, read-out: MIC P. aeruginosa ATCC #, molar conversion in parentheses, read-out: MIC P. aeruginosa ATCC 27863

Compound | IC50 [1] [nM] | Inhibition of topoisomerase IV (in words) [1] | MIC [2, 17] [µM] | MIC ([2]; wild-type) [µg/mL] | MIC ([3]; broth microdilution, 18 h) [µg/mL] | MIC [3, 17] [µM] | MIC [4, 18] [µg/mL] | MIC [4, 19] [µM] | MIC [5] [µM] | Minimum Inhibitory Concentration E. coli MG1655 GyrA S83L, D87N ParC S80I, E84G [5] [µg/mL] | MIC [6] [µM] | Minimum Inhibitory Concentration E. coli MG1655 GyrB R136C [6] [µg/mL] | MIC ([7]; broth microdilution, 18 h) [µg/mL] | MIC [7, 17] [µM] | IC50 [8] [nM] | MIC [9] [µM] | Minimum Inhibitory Concentration E. coli MG1655 WT [9] [µg/mL] | MIC ([10]; broth microdilution, 18 h) [µg/mL] | MIC [10, 17] [µM] | Minimum Inhibitory Concentration E. coli BW25113 ΔtolC ([11]; efflux pump mutant) [µg/mL] | also measured
Cc1[nH]c(C(=O)Nc2nc3ccc(C(=O)N4CCN(c5cc6c(cc5F)c(=O)c(C(=O)O)cn6C5CC5)CC4)cc3s2)c(Cl)c1Cl [Compound 3a, 1-Cyclopropyl-7-(4-(2-(3,4-dichloro-5-methyl-1H-pyrrole-2-carboxamido)benzo[d]thiazole-6-carbonyl)piperazin-1-yl)-6-fluoro-4-oxo-1,4-dihydroquinoline-3-carboxylic acid] | 1000 ± 150 | low micromolar | 5.85 | 4 | 0.5 | 0.73 | 64 | 93.6 | 23.4 | 16 | 0.73 | 0.5 | 2 | 2.93 | 450 ± 180 | 0.73 | 0.5 | 4 | 5.85 | 1 | melting point: > 300 °C; MIC change, ΔtolC mutant versus wild-type E. coli BW25113 [11]: 4 fold; Minimum Inhibitory Concentration E. coli BW25113 ΔtolC [11, 17]: (1.46 µM); Minimum Inhibitory Concentration E. coli BW25113 ΔdapF ([12]; impaired cell-wall mutant): 4 µg/mL; Minimum Inhibitory Concentration E. coli BW25113 ΔdapF [12, 17]: (5.85 µM); Minimum Inhibitory Concentration E. coli BW25113 ΔmrcB ([13]; impaired cell-wall mutant): 4 µg/mL; Minimum Inhibitory Concentration E. coli BW25113 ΔmrcB [13, 17]: (5.85 µM); Minimum Inhibitory Concentration E. coli BW25113 ΔacrB ([14]; efflux pump mutant): 4 µg/mL; Minimum Inhibitory Concentration E. coli BW25113 ΔacrB [14, 17]: (5.85 µM); Minimum Inhibitory Concentration E. coli BW25113 ΔsurA ([15]; impaired cell-wall mutant): 4 µg/mL; Minimum Inhibitory Concentration E. coli BW25113 ΔsurA [15, 17]: (5.85 µM); MIC ([16]; broth microdilution, 18 h): 16 µg/mL; MIC [16, 17]: 23.4 µM
Cc1[nH]c(C(=O)Nc2nc3c(OCc4ccccc4)cc(C(=O)NCCOCCN4CCN(c5cc6c(cc5F)c(=O)c(C(=O)O)cn6C5CC5)CC4)cc3s2)c(Cl)c1Cl.Cl [Compound 11b, 1-(2-(2-(4-(Benzyloxy)-2-(3,4-dichloro-5-methyl-1H-pyrrole-2-carboxamido)benzo[d]thiazole-6-carboxamido)ethoxy)ethyl)-4-(3-carboxy-1-cyclopropyl-6-fluoro-4-oxo-1,4-dihydroquinolin-7-yl)piperazin-1-ium chloride] | 2500 ± 1100 | low micromolar | 9.11 | 8 | 1 | 1.14 | > 64 | > 72.9 | 4.56 | 4 | 2.28 | 2 | 4 | 4.56 | 14 ± 9 | 1.14 | 1 | 16 | 18.2 | 1 | MIC change, ΔtolC mutant versus wild-type E. coli BW25113 [11]: 8 fold; Minimum Inhibitory Concentration E. coli BW25113 ΔtolC [11, 17]: (1.14 µM); Minimum Inhibitory Concentration E. coli BW25113 ΔdapF ([12]; impaired cell-wall mutant): 8 µg/mL; Minimum Inhibitory Concentration E. coli BW25113 ΔdapF [12, 17]: (9.11 µM); Minimum Inhibitory Concentration E. coli BW25113 ΔmrcB ([13]; impaired cell-wall mutant): 8 µg/mL; Minimum Inhibitory Concentration E. coli BW25113 ΔmrcB [13, 17]: (9.11 µM); Minimum Inhibitory Concentration E. coli BW25113 ΔacrB ([14]; efflux pump mutant): 8 µg/mL; Minimum Inhibitory Concentration E. coli BW25113 ΔacrB [14, 17]: (9.11 µM); Minimum Inhibitory Concentration E. coli BW25113 ΔsurA ([15]; impaired cell-wall mutant): 8 µg/mL; Minimum Inhibitory Concentration E. coli BW25113 ΔsurA [15, 17]: (9.11 µM); MIC ([16]; broth microdilution, 18 h): 64 µg/mL; MIC [16, 17]: 72.9 µM
